Patent US20200383985A1, “Inhibitors of Protease Activated Receptor-2” (Endosome Therapeutics, Inc., priority 2017, published 2020)
pIC50: −log10 of the molar value. Like-named read-outs stand apart in the source and are kept apart here.

Legend:
Type in all cases: cell-based
[1] = biological target: T1, human (h) PAR2 (Homo sapiens, UniProt P55085); experiment: IP1 accumulation assay in KNRK-hPAR2 cells; conditions: for inhibition at 30 µM: 100 nM 2F, 30 μM of antagonist, read-out: KNRK-PAR2 100 nM 2F: ND (inhibition of 2F at 30 μM of antagonist); for IC50: 2F (100 nM)-induced IP1, KNRK-hPAR2 cells, read-out: KNRK-PAR2 100 nM 2F pIC50 ± SEM (converted)
T1 construct: expressed in transfected cells; host or cells: KNRK cells (KNRK-hPAR2)
T1 sequence (P55085 26-397): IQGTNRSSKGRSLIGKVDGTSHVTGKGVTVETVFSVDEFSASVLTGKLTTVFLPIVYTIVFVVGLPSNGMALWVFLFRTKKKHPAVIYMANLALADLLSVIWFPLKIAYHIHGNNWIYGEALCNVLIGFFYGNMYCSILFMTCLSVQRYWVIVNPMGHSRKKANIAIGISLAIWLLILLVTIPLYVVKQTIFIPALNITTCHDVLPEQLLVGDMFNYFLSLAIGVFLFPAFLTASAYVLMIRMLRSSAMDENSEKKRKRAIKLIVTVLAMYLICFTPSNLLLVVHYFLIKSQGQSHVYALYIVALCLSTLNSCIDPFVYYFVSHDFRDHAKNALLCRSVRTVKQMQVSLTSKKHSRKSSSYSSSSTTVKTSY
Experimental: (§1) KNRK-hPAR2, KNRK or HT-29 cells were seeded at a density of 50×10^3 cells/well in a clear poly-d-lysine coated 96 well tissue culture plate. Following 24 h incubation at 37° C. and 5% CO2, media was removed and replaced with 80 μl IP1 stimulation buffer (10 mM HEPES, 1 mM CaCl2, 0.5 mM MgCl2, 4.2 mM KCl, 146 mM NaCl, 5.5 mM glucose, 50 mM LiCl). Following stimulation buffer addition, the wells received 10 μl of 10× antagonists or DMSO vehicle. All plates were further incubated at 37° C., 5% CO2 for 30 min. 10 μl of 2F or ATP was added to the plates and further incubated for 40 min. Following incubation, stimulation buffer was quickly removed by aspiration and replaced with 25 μl lysis buffer (IP-One HTRF® assay kit, Cisbio). Following incubation of the lysates at 37° C., 5% CO2 for 10′, 10 μl lysate was transferred to a 384-well OptiPlate (PerkinElmer) and detected using the IP-One HTRF® assay kit (Cisbio).
(§2) Compounds of the invention (added at 10×concentrations in a 10 μL volume) were incubated for 30 min prior to the addition of 10 μM ATP or 100 nM or 300 nM PAR2 agonist (2F; EC80, added at 10×concentrations in a 10 μL volume) and then further incubated for 40 min. After lysis, the inositol phosphate 1 was quantified with IP-One HTRF® assay kit, Cisbio. The data was analysed with Prism, GraphPad to calculate the IC50 values, shown below in Table 1.
(§3) Inhibition of PAR2 signaling with known PAR2 inhibitor I-343 (FIG. 14A) was investigated in HT-29 cells and HEK293 cells, which express endogenous PAR2, and in KNRK cells expressing human (h) PAR2. Accumulation of inositol phosphate-1 (IP1) was measured in response to the PAR2-selective agonist 2-Furoyl-LIGRLO-NH2 (2F), an analogue of the trypsin-exposed tethered ligand, or trypsin.
(§4) KNRK-hPAR2, KNRK, HEK293, or HT-29 cells were seeded at a density of 50×10^3 cells/well onto clear 96-well plates (PerkinElmer). After 24 h of culture, medium was replaced with IP1 stimulation buffer (10 mM HEPES, 1 mM CaCl2, 0.5 mM MgCl2, 4.2 mM KCl, 146 mM NaCl, 5.5 mM glucose, 50 mM LiCl; 37° C., 5% CO2.). Cells were pre-incubated with the antagonist or vehicle for 30 min prior to the addition of agonist. Cells were then further incubated for 40 min. Stimulation buffer was […]

[2] = biological target: T2, PAR2 (Homo sapiens, UniProt P55085); experiment: IP1 accumulation assay in HT-29 cells (endogenous PAR2); conditions: 2F (300 nM)-induced IP1, HT-29 cells; for pIC50: read-out: HT-29 300 nM 2F (IC50); for IC50: read-out: HT-29 300 nM 2F pIC50 ± SEM (converted)
T2 construct: HT-29 cells and HEK293 cells, which express endogenous PAR2; endogenous in cells; host or cells: HT-29
T2 sequence (P55085 26-397): T1 sequence (P55085 26-397)
Experimental: as §1, §2, §3, §4

[3] = test system: mouse DRG neurons; experiment: Patch clamp rheobase of DRG neurons: protease-induced hyperexcitability of nociceptors

Row | Molecule | inhibition at 30 µM [1] [%] | pIC50 [2] | IC50 [2] [nM] | also measured
1 | CC(C)(C)c1cc(-c2ccc(F)cc2)nn2cc(C(=O)N3CCN(C(=O)c4cn(CC(=O)O)nn4)CC3(C)C)nc12 [Compound 2, 2-(4-(4-(8-(tert-butyl)-6-(4-fluorophenyl)imidazo[1,2-b]pyridazine-2-carbonyl)-3,3-dimethylpiperazine-1-carbonyl)-1H-1,2,3-triazol-1-yl)acetic acid] | < 50 | 6.85 | 138 | 
2 | CC(C)(C)c1cc(-c2ccc(F)cc2)nn2cc(C(=O)N3CCN(C(=O)[C@H]4CC[C@@H](NC(=O)[C@H](O)[C@@H](O)[C@@H](O)[C@H](O)C(N)=O)CC4)CC3(C)C)nc12 [Compound 7, (2R,3S,4R,5S)—N1-((1s,4S)-4-(4-(8-(tert-butyl)-6-(4-fluorophenyl)imidazo[1,2-b]pyridazine-2-carbonyl)-3,3-dimethylpiperazine-1-carbonyl)cyclohexyl)-2,3,4,5-tetrahydroxyhexanediamide] | < 50 | 6.39 | 406 | 
3 | CC(C)CCC[C@@H](C)[C@H]1CCC2C3CCC4C[C@@H](OC(=O)C[C@H](NC(=O)CCOCCOCCNC(=O)Cn5cc(C(=O)N6CCN(C(=O)c7cn8nc(-c9ccc(F)cc9)cc(C(C)(C)C)c8n7)C(C)(C)C6)nn5)C(N)=O)CC[C@]4(C)C3CC[C@@]21C (stereo partly drawn) [Compound 9, (3S,10S,13R,17R)-10,13-dimethyl-17-((R)-6-methylheptan-2-yl)hexadecahydro-1H-cyclopenta[a]phenanthren-3-yl (14S)-1-(4-(4-(8-(tert-butyl)-6-(4-fluorophenyl)imidazo[1,2-b]pyridazine-2-carbonyl)-3,3-dimethylpiperazine-1-carbonyl)-1H-1,2,3-triazol-1-yl)-14-carbamoyl-2,12-dioxo-6,9-dioxa-3,13-diazahexadecan-16-oate] | < 50 | 6.15 |  | 
4 | CC(C)CCC[C@@H](C)[C@H]1CCC2C3CCC4C[C@@H](OC(=O)C[C@H](NC(=O)CCOCCOCCOCCOCCNC(=O)Cn5cc(C(=O)N6CCN(C(=O)c7cn8nc(-c9ccc(F)cc9)cc(C(C)(C)C)c8n7)C(C)(C)C6)nn5)C(N)=O)CC[C@]4(C)C3CC[C@@]21C (stereo partly drawn) [Compound 11, (3S,10S,13R,17R)-10,13-dimethyl-17-((R)-6-methylheptan-2-yl)hexadecahydro-1H-cyclopenta[a]phenanthren-3-yl (20S)-1-(4-(4-(8-(tert-butyl)-6-(4-fluorophenyl)imidazo[1,2-b]pyridazine-2-carbonyl)-3,3-dimethylpiperazine-1-carbonyl)-1H-1,2,3-triazol-1-yl)-20-carbamoyl-2,18-dioxo-6,9,12,15-tetraoxa-3,19-diazadocosan-22-oate] | < 50 | 6.01 |  | 
5 | CC(C)CCC[C@@H](C)[C@H]1CCC2C3CCC4C[C@@H](OC(=O)C[C@H](NC(=O)CCOCCOCCOCCOCCOCCOCCOCCOCCNC(=O)Cn5cc(C(=O)N6CCN(C(=O)c7cn8nc(-c9ccc(F)cc9)cc(C(C)(C)C)c8n7)C(C)(C)C6)nn5)C(N)=O)CC[C@]4(C)C3CC[C@@]21C (stereo partly drawn) [Compound 12, (3S,10S,13R,17R)-10,13-dimethyl-17-((R)-6-methylheptan-2-yl)hexadecahydro-1H-cyclopenta[a]phenanthren-3-yl (32S)-1-(4-(4-(8-(tert-butyl)-6-(4-fluorophenyl)imidazo[1,2-b]pyridazine-2-carbonyl)-3,3-dimethylpiperazine-1-carbonyl)-1H-1,2,3-triazol-1-yl)-32-carbamoyl-2,30-dioxo-6,9,12,15,18,21,24,27-octaoxa-3,31-diazatetratriacontan-34-oate] | < 50 | 6.08 |  | 
6 | CN(C)CCCn1cc(C2=C(c3c[nH]c4ccccc34)C(=O)NC2=O)c2ccccc21 [GF109203X] |  |  |  | initial trypsin-induced hyperexcitability [3]: prevented; persistent trypsin-induced hyperexcitability [3]: not
7 | CC(C)c1ccc(Cn2ccc3c4c(N)nc(NC5CC5)nc4ccc32)cc1 [SCH79797] |  |  |  | rheobase response to trypsin (PAR1 antagonist) ([3]; 1 μM): did not affect; rheobase, antagonist alone ([3]; 1 μM): no effect; thrombin-induced immediate decrease in rheobase ([3]; thrombin 50 nM, 20 min, antagonist 1 μM, 10 min preincubation): prevented
8 | thrombin |  |  |  | rheobase after protease ([3]; trypsin 50 nM 10 min, NE 390 nM 30 min, CS 500 nM 60 min, thrombin 50 nM 20 min, washed): immediate decrease in rheobase

The next lines start with results.

Row | inhibition at 30 µM [1] [%] | pIC50 [2] | IC50 [2] [nM] | Molecule | also measured
9 | < 50 | 5.23 |  | CC(C)(C)c1cc(-c2ccc(F)cc2)nn2cc(C(=O)N3CCN(C(=O)CCS(=O)(=O)O)CC3(C)C)nc12 [Compound 1, 3-(4-(8-(tert-butyl)-6-(4-fluorophenyl)imidazo[1,2-b]pyridazine-2-carbonyl)-3,3-dimethylpiperazin-1-yl)-3-oxopropane-1-sulfonic acid] | 
10 |  | 7.40 | 40.7 | CC(C)(C)c1cc(-c2ccc(F)cc2)nn2cc(C(=O)N3CCN(C(=O)[C@H]4CC[C@@H](C(=O)NC[C@H](O)[C@@H](O)[C@H](O)[C@H](O)CO)CC4)CC3(C)C)nc12 [Compound 3, (1S,4R)-4-(4-(8-(tert-butyl)-6-(4-fluorophenyl)imidazo[1,2-b]pyridazine-2-carbonyl)-3,3-dimethylpiperazine-1-carbonyl)-N-((2S,3R,4R,5R)-2,3,4,5,6-pentahydroxyhexyl)cyclohexane-1-carboxamide] | IC50 [1]: > 10000 nM
11 | < 50 |  | > 10000 | CC(C)(C)c1cc(-c2ccc(F)cc2)cc2nc(C(=O)N3CCN(C(=O)CCC(=O)NC[C@H](O)[C@@H](O)[C@H](O)[C@H](O)CO)CC3(C)C)oc12 [Compound 4, 4-(4-(7-(tert-butyl)-5-(4-fluorophenyl)benzo[d]oxazole-2-carbonyl)-3,3-dimethylpiperazin-1-yl)-4-oxo-N-((2S,3R,4R,5R)-2,3,4,5,6-pentahydroxyhexyl)butanamide] | 
12 | < 50 |  | 180 | CC(C)(C)c1cc(-c2ccc(F)cc2)nn2cc(C(=O)N3CCN(C(=O)c4cn(CC(=O)NCCOCCOCCO)nn4)CC3(C)C)nc12 [Compound 5, 2-(4-(4-(8-(tert-butyl)-6-(4-fluorophenyl)imidazo[1,2-b]pyridazine-2-carbonyl)-3,3-dimethylpiperazine-1-carbonyl)-1H-1,2,3-triazol-1-yl)-N-(2-(2-(2-hydroxyethoxy)ethoxy)ethyl)acetamide] | 
13 | < 50 | 6.01 |  | CC(C)(C)c1cc(-c2ccc(F)cc2)nn2cc(C(=O)N3CCN(C(=O)c4cn(CC(=O)NCCOCCOCCOCCOCCOCCO)nn4)CC3(C)C)nc12 [Compound 6, 2-(4-(4-(8-(tert-butyl)-6-(4-fluorophenyl)imidazo[1,2-b]pyridazine-2-carbonyl)-3,3-dimethylpiperazine-1-carbonyl)-1H-1,2,3-triazol-1-yl)-N-(17-hydroxy-3,6,9,12,15-pentaoxaheptadecyl)acetamide] | 
14 |  |  | 42.7 | COC(=O)C12CCC(C(=O)N3CCN(C(=O)c4cn5nc(-c6ccc(F)cc6)cc(C(C)(C)C)c5n4)C(C)(C)C3)(CC1)CC2 [Compound 8, methyl 4-(4-(8-(tert-butyl)-6-(4-fluorophenyl)imidazo[1,2-b]pyridazine-2-carbonyl)-3,3-dimethylpiperazine-1-carbonyl)bicyclo[2.2.2]octane-1-carboxylate] | IC50 [1]: > 10000 nM
